# Assay results: US6071896A, “Suppression of thromboxane levels by percutaneous administration of aspirin” (Gundersen Clinic, Ltd., priority 1998, dated 2000)
# “Also recorded” adds a separate entry of the source.
# How the values were obtained:
# [1] = Plasma aspirin levels following oral aspirin; type: in vivo; settings: human
# Procedure: (§1) The preservation of vascular cyclooxygenase is consistent with the low bioavailability of the dermal aspirin. Plasma aspirin and salicylate were determined using a highly sensitive assay that can measure levels of <0.1 ng/ml. Following oral aspirin 325 mg or 162 mg, peak plasma aspirin levels were 2.0 and 1.3 ug/ml, respectively. In contrast, following dermal aspirin, plasma levels peaked at 237±114 ng/ml and plasma salicylate peaked at 788±114 ng/ml.
# PGI2 biosynthesis = assay: Urinary 2,3-dinor-6-keto-PGF1a (PGI-M) excretion, dermal aspirin, Example 2; type: in vivo, human; settings: for Urinary PGI-M excretion, peak decrease (day 4): p=0.074 by ANOVA (not significant)
# Procedure: (§2) Only healthy male and female volunteers were studied. The subjects were asked to avoid aspirin and any other cyclooxygenase inhibitors for the 10 days before and throughout the period of investigation. Aspirin (acetyl salicylic acid, USP) powder was dissolved in propylene glycol and either isopropyl alcohol or ethanol (1.7:1 v/v) to a final concentration of 94 mg/ml. […] The aspirin preparation was made daily immediately prior to its application Volunteers attended the clinic where the preparation was applied and were asked not to wash the area for at least 12 hours. The aspirin solution was applied to the forearm and upper arm over a 15 min interval. Volunteers received aspirin 250 mg (n=4), aspirin 750 mg (n=6) or vehicle (n=6) for 10 days and were followed for 8 days following drug withdrawal. The volunteers were aged 31-56 years, with equal numbers of male and females in each treatment group.
# (§3) Blood without anticoagulant was obtained for serum TXB2, the stable metabolite of TXA2, prior to and at intervals during and following aspirin administration. The blood was allowed to clot in glass at 37° C. for 60 min and the serum removed and stored at -20° C. until analyzed. Urine was collected over 24 hours at corresponding times for measurement of 2,3-dinor-TXB2 (TX-M) and 2,3-dinor-6-keto-PGF1a (PGI-M), major enzymatic metabolites of TXA2 and PGI2, respectively [Lawson et al., Analyt. Biochem. 150:463 (1985); FitzGerald et al., N. Engl. J. Med. 310: 1065 (1984)]. Excretion of these products is an index of the in vivo formation of their parent compounds [FitzGerald et al., supra; Reilly and Fitzgerald, Blood 69: 180 (1987)]. Serum TXB2 and urinary metabolites were determined by negative ion-chemical ionization, gas chromatography-mass spectrometry (NICI-GCMS) using authentic deuterated standards, as previously described [Braden et al., supra].
# skin = assay: Skin reactions and histology after dermal aspirin; type: in vivo, human
# TXA2 biosynthesis = assay: Urinary 2,3-dinor-TXB2 (TX-M) excretion, dermal aspirin, Example 2; type: in vivo, human
# Procedure: as §2, §3
# thromboxane synthesis = settings: cited from earlier work
# [2] = Hemoccults, gastrointestinal symptoms and side effects, Example 1; type: in vivo, human; settings: 5 volunteers, topical aspirin
# Excerpt: Five healthy adult volunteers (3 male, 2 female) were studied. Each refrained from ingesting oral aspirin for two weeks prior to study. Prior to treatment in accordance with the present invention, baseline thromboxane levels and hemoccults were obtained.
# After base levels of thromboxane had been measured, the aspirin solution was first applied on the morning of Day 1 to the skin of the human subjects within an hour of mixing by rubbing the aspirin solution on the arms and/or chest of the subject. The application was repeated with freshly prepared solution for each of four additional mornings (Days 2-5) in the same manner. Between applications the subjects followed their normal schedule of bathing and showering. Eight hours after the fifth application (on Day 5) blood was drawn for salicylate levels and thromboxane levels to be determined. With one subject, blood was drawn for TXA2 levels every day just before application of a new aspirin solution (i.e., approximately 24 hours after application of the previous aspirin solution). Hemoccults were also tested.
# platelet cyclooxygenase = assay: Serum TXB2 during and after dermal aspirin (index of platelet cyclooxygenase); type: in vivo, human
# Excerpt: In studying the effects of the methods of the present invention platelet cyclooxygenase activity was used as a measure of aspirin bioavailability, in addition to plasma drug levels. […] Inhibition of urinary TX-M followed a similar pattern. TX-M is a major enzymatic metabolite of TXB2 and its excretion is an index of TXA2 biosynthesis in vivo. In contrast, the vehicle alone had no effect on serum TXB2 or urinary TX-M. Following withdrawal of therapy, serum TXB2 and TX-M recovered gradually over a period of days. This is consistent with inhibition of platelet cyclooxygenase in vivo. As the enzyme is inhibited irreversibly, recovery of platelet TXA2 biosynthesis parallels the formation of new platelets, a process that has a half-life of 5 days.
# as §2, §3
# physchem = type: physicochemical
# [3] = Plasma aspirin and salicylate after dermal aspirin (NICI-GCMS), Example 4; type: in vivo, human; settings: dermal aspirin 750 mg, single application
# Procedure: as §1
# Aspirin was applied in a dose of 750 mg on one limb over a 15 min interval. Samples were drawn from the opposite arm. Blood was withdrawn into heparin (10 U/ml final concentration) and potassium fluoride (5% final concentration), the latter to prevent ex vivo metabolism of aspirin by plasma esterases. The plasma was separated immediately and stored at […] until analyzed. Aspirin and its metabolite, salicylic acid, were measured by NICI-GCMS using deuterium-labelled analogues as internal standards, as previously described [Clark, supra].
# [4] = highest dose of dermal aspirin (750 mg/day)
structure (smiles),measurement,setting,value
"CC(=O)Oc1ccccc1C(=O)O [aspirin, acetyl salicylic acid]",Cmax,"[1]; oral aspirin 75 mg, read-out: Levels following oral aspirin",1000 to 2000 ng/mL
same,Cmax,"[1]; oral aspirin 162 mg, read-out: Peak plasma aspirin level",1300 ng/mL
same,Cmax,"[1]; oral aspirin 325 mg, read-out: Peak plasma aspirin level",2000 ng/mL
same,PGI2 biosynthesis based on urinary PGI-M,PGI2 biosynthesis; dermal aspirin,little inhibition of basal or stimulated PGI2 formation; also recorded: only a small fall in PGI2 biosynthesis
same,"Urinary PGI-M excretion, peak decrease (day 4)","PGI2 biosynthesis; dermal aspirin 250 mg/day, baseline 402±139 pg/mg creatinine",84±4 % of baseline
same,"Urinary PGI-M excretion, peak decrease (day 4)","PGI2 biosynthesis; dermal aspirin 750 mg/day, baseline 248±73 pg/mg creatinine",76±7 % of baseline
same,Decrease in basal PGI-M excretion by day 4,PGI2 biosynthesis; [4],24%
same,PGI-M excretion by day 10,PGI2 biosynthesis; [4],83 % of baseline
same,"Subjects with skin reactions, including erythema and peeling",skin; dermal aspirin,30 % of subjects
same,Skin reactions with alternate day application,"skin; dermal, alternate day, up to 8 weeks",without reactions for up to 8 weeks
same,Skin histology,"skin; one subject, 10 days, 250 mg/day",no histological changes
same,"Urinary TX-M excretion, 8 days following drug withdrawal",TXA2 biosynthesis; dermal aspirin 750 mg/day,65±9 % of pretreatment value
same,"Urinary TX-M excretion, day 10","TXA2 biosynthesis; dermal aspirin 750 mg/day, n=5, p=0.002, baseline 498±76 pg/mg creatinine",32±7 % of baseline
same,Urinary TX-M excretion response,TXA2 biosynthesis; dermal aspirin 250 and 750 mg/day,dose dependent reduction in the urinary excretion of TX-M
same,"Thromboxane-B2 synthesis in vitro and urinary 2,3-dinor-thromboxane-B2",thromboxane synthesis; approximately 40 mg/day,"inhibit thromboxane-B2 synthesis in vitro and to reduce the urinary excretion of 2,3-dinor-thromboxane-B2"
same,TXA2 and PGI2 synthesis,"thromboxane synthesis; approximately 1,000 mg/day",inhibits both TXA2 and PGI2 synthesis
same,Maternal and neonatal thromboxane,"thromboxane synthesis; low doses, women at risk for pregnancy-induced hypertension","selectively suppress maternal thromboxane levels, but only partially suppressed neonatal thromboxane"
same,Gastrointestinal symptoms or other side effects,[2],No gastrointestinal symptoms or other side effects were noted or reported
same,Hemoccults,[2],negative
same,Inhibition of platelet cyclooxygenase,platelet cyclooxygenase; aspirin absorbed through the skin,marked and selective inhibition of platelet cyclooxygenase
same,"Serum TXB2 recovery, day 8 after withdrawal",platelet cyclooxygenase; dermal aspirin 250 mg/day,93±7 % of baseline
same,"Serum TXB2 (fall in), day 10","platelet cyclooxygenase; dermal aspirin 250 mg/day, n=4, p<0.01",55±11%
same,"Serum TXB2 recovery, day 8 after withdrawal",platelet cyclooxygenase; dermal aspirin 750 mg/day,65±9 % of baseline
same,Serum TXB2 response,"platelet cyclooxygenase; dermal aspirin 750 mg/day, n=6",progressive reduction in serum TXB2 in all but one of the volunteers
same,"Serum TXB2, day 10 of application","platelet cyclooxygenase; dermal aspirin 750 mg/day, n=5 (one non-responder excluded), p=0.003",5±3 % of baseline
same,Decrease in serum TXB2 in the subjects of Example 4,"platelet cyclooxygenase; dermal aspirin, subjects selected for pharmacokinetics",> 90%
same,"Maximum inhibition of platelet cyclooxygenase, as measured by serum TXB2","platelet cyclooxygenase; dermal, highest dose, 10 days",exceeded 95%
same,degraded at 24 h,"physchem; 24 hr, room temperature, propylene glycol and isopropyl alcohol or ethanol (1.7:1 v/v), 94 mg/ml, read-out: Salicylate detected in vehicle (aspirin stability)",< 1%
same,Stability of aspirin in vehicle,"physchem; propylene glycol and alcohol vehicle, 24 hr room temperature",stable
same,Plasma aspirin up to three hours,[3],barely detectable
same,concentration at 24 h,"[3]; human, plasma, topical or ocular",4 ± 3 ng/mL
same,Cmax,"[3]; human, plasma, topical or ocular, read-out: Plasma aspirin, about 3 h (peak)",237 ± 114 ng/mL
same,concentration at 6 h,"[3]; human, plasma, topical or ocular, read-out: Plasma aspirin, six hours",52 ± 14 ng/mL
